Source: patent US20240336638A1, “IMIDAZOLE COMPOUND, AND INTERMEDIATE AND APPLICATION THEREOF” (priority 2021, published 2024)
Where two headings read alike, the source gives them in different places.

How the values were obtained:
MCAO/R rats = assay: Therapeutic administration (i.v.) in middle cerebral artery occlusion/reperfusion (MCAO/R) rats; type: in vivo, rat; conditions: for Bleeding time / Brain water content (%) / Cerebral infarction rate (%) / Clotting time / Neurological function score: once a day for 3 days, mean ± SD, n = 8; for Neurological function score: modified Bederson score
Description: Male SD rats weighing 250 to 300 g were taken, and the rats in each group fasted for 12 hours before modeling, while water was not restricted. According to the method of Longa et al.^[1], a rat model of MCAO/R was established by occluding the blood flow of internal carotid artery using the thread embolization method. The rats were anesthetized with 3% chloral hydrate (300 mg/kg, 1 mL/100 g body weight) through intraperitoneal injection and fixed in the supine position on the operating table. A midline incision was made in the neck, and the right common carotid artery was isolated using forceps and threaded for later use. The external and internal carotid arteries were isolated from the bifurcation of the common carotid artery. A single thread was threaded through the internal carotid artery, and two threads were threaded through the external carotid artery. Both distal and proximal ends were ligated, and the middle part of the ligation site was cut using ophthalmic scissors. The proximal main trunk of the external carotid artery was isolated and reserved for later use. The prepared cotton thread was used to half-ligate the common carotid artery (tying a slipknot), and the thread prepared for the internal carotid artery was tightened with hemostatic forceps, temporarily occluding the blood flow of the internal carotid artery. A small incision at the proximal main trunk of the external carotid artery was made using ophthalmic scissors, and then, the fishing line was held with straight forceps, inserted from this incision, and slowly advanced through the isolated proximal main trunk of the external carotid artery towards the intracranial direction of the internal carotid artery. The advancement was stopped at a predetermined position, and then the thread of the internal carotid artery that was tightened with the hemostatic forceps was loosened. […] Another thread was threaded and tightened around the proximal main trunk of the external carotid artery and the fishing line that had already been inserted into the predetermined position. The half-ligated thread on the common carotid artery was then loosened, and the skin was subsequently sutured. After 2 hours of ischemia, a small section of the fishing line was pulled out. […] After rats in the blank control group were anesthetized, only the bifurcation of the internal and external carotid arteries was exposed without the occlusion of the MCA.
Successfully modeled rats (neurological function score of 3 after reperfusion) were taken and divided into 20 groups (8 rats for each) according to the random number table method. The groups were divided into a model control group, three dose groups (high, 12 mg/kg, 2.4 mg/mL; medium, 6 mg/kg, 1.2 mg/mL; low, 3 mg/kg, 0.6 mg/mL) for each of the six test compounds, and a positive drug Ozagrel group (6 mg/kg, 1.2 mg/mL), respectively. Both blank and model control groups were administered equal volumes of mixed solvents, and the rats in each group were administered by tail vein injection (i.v.) 2 hours after reperfusion, once a day for 3 consecutive days, with a volume of 0.5 mL/100 g body weight.
Ten minutes after the last administration, the neurological function of the animals was graded according to the modified Bederson scoring method. The standard is as follows[2]: • 0 point: no neurological symptoms; • 1 point: when the rat is suspended by lifting its tail, the forelimb on the surgical side of the rat was flexed and pressed against the chest wall; • 2 points: on a smooth plane, when the rat is pushed from the surgical side to the opposite side, the resistance is less than when it is moved to the same side; • 3 points: the animal moves around or in circles when moving freely; • 4 points: flaccid paralysis, no spontaneous movement of limbs.
After Bederson scoring, the rats were executed by cervical dislocation, and the whole brain was removed and weighed. After weighing, the whole brain was placed in a −20° C. refrigerator for 20 minutes. […]

[1] = Blood-brain barrier (BBB) study in SD rats after single IV and PO administration, brain; type: in vivo; conditions: for Cmax / Tmax / half-life / MRT last / MRT inf: Sprague-Dawley (SD); for Cmax / Tmax / half-life / MRT last / MRT inf / AUC(0−t) / AUC(0−∞): rat brain; for MRT last: read-out: MRT(0−t); for MRT inf: read-out: MRT(0−∞); for T1/2 and AUC(0-∞) in the brain tissue: compared to Ozagrel
Description: Effect Example 3: Pharmacokinetic and blood-brain barrier (BBB) studies of compounds after single intravenous (IV) and oral (PO) administration in SD rats
(§1) The experimental method of administration by gavage injection in rats: SD rats weighing 180 to 220 g were fasted for 12 hours prior to the experiment, with free access to water. After administration, food and water were withheld for 4 hours. After this 4-hour period, the rats were allowed free access to water, and food was provided after 8 hours. The drugs were administered at a set dose. N=3, blood samples were taken before administration, and 5 minutes, 0.25 hours, 0.5 hours, 0.75 hours, 1 hour, 2 hours, 4 hours, 8 hours, and 24 hours after administration, respectively, and placed into sodium heparin anticoagulant tubes. The tubes were centrifuged for 1 hour at 4° C. and at 8000 rpm for 5 minutes, and the plasma was then separated and stored in centrifuge tubes at −70° C. for analysis.
as §1, with “of intravenous” for “of”, “to” for “by gavage injection in”
The plasma concentration-time data were processed using the Phoenix® WinNonlin® 8.0 program to calculate pharmacokinetic parameters.
Among them, Cmax and Tmax are measured values, the elimination rate constant k of the tail section of the C-t curve is obtained from the linear regression of LnC-t, and the value of AUC0-4 is calculated by the trapezoidal area method, and the area under the curve from 0 to ∞ time is AUC=AUC0-4+Ct/k.

[2] = medium dose 6 mg/kg i.v. (Ozagrel group 6 mg/kg)

Compound	Bleeding time (MCAO/R rats; high dose 12 mg/kg i.v.) [s]	Brain water content (%) (MCAO/R rats; high dose 12 mg/kg i.v.)	Cerebral infarction rate (%) (MCAO/R rats; high dose 12 mg/kg i.v.)	Clotting time (MCAO/R rats; high dose 12 mg/kg i.v.) [s]	Neurological function score (MCAO/R rats; high dose 12 mg/kg i.v.)	Bleeding time (MCAO/R rats; low dose 3 mg/kg i.v.) [s]	Brain water content (%) (MCAO/R rats; low dose 3 mg/kg i.v.)	Cerebral infarction rate (%) (MCAO/R rats; low dose 3 mg/kg i.v.)	Clotting time (MCAO/R rats; low dose 3 mg/kg i.v.) [s]	Neurological function score (MCAO/R rats; low dose 3 mg/kg i.v.)	Bleeding time (MCAO/R rats; [2]) [s]	Brain water content (%) (MCAO/R rats; [2])	Cerebral infarction rate (%) (MCAO/R rats; [2])	Clotting time (MCAO/R rats; [2]) [s]	Neurological function score (MCAO/R rats; [2])	Cmax ([1]; IV 1 mg/kg) [ng/g]	Tmax ([1]; IV 1 mg/kg) [min]	half-life ([1]; IV 1 mg/kg) [min]	MRT last ([1]; IV 1 mg/kg) [min]	MRT inf ([1]; IV 1 mg/kg) [min]	further results
O=C(O)[C@@H]1C[C@H]1c1ccc(Cn2ccnc2)c(F)c1 [Compound 15, (1R,2R)-2-(4-((1H-Imidazol-1-yl)methyl)-3-fluorophenyl)cyclopropane-1-carboxylic acid]	289.63 ± 60.00	80.84 ± 1.40	15.57	163.13 ± 20.06	1.50 ± 0.53	281.38 ± 61.33	81.71 ± 1.64	29.98 ± 5.52	155.38 ± 41.85	2.38 ± 0.74	304.88 ± 43.01	81.19 ± 1.32	21.57	156.50 ± 31.15	1.75 ± 0.71	41.2	4.8	132	49.2	183	Cmax ([1]; PO 6 mg/kg): 199 ng/g; Tmax ([1]; PO 6 mg/kg): 60 min; half-life ([1]; PO 6 mg/kg): 102 min; MRT last ([1]; PO 6 mg/kg): 154 min; MRT inf ([1]; PO 6 mg/kg): 175 min; T1/2 and AUC(0-∞) in the brain tissue ([1]; intravenously at 1 mg/kg): significantly increased; T1/2 and AUC(0-∞) in the brain tissue ([1]; orally at 6 mg/kg): significantly increased; AUC(0−t) ([1]; IV 1 mg/kg): 33.91 ng·h/g; AUC(0−∞) ([1]; IV 1 mg/kg): 69.74 ng·h/g; AUC(0−t) ([1]; PO 6 mg/kg): 815.87 ng·h/g; AUC(0−∞) ([1]; PO 6 mg/kg): 853.63 ng·h/g
O=C(O)[C@@H]1C[C@H]1c1ccc(Cn2ccnc2)cc1 [Compound 19, (1R,2R)-2-(4-((1H-Imidazol-1-yl)methyl)phenyl)cyclopropane-1-carboxylic acid]	304.75 ± 35.16	80.84 ± 1.04	13.48	151.19 ± 21.35	1.75 ± 0.89	272.38 ± 52.89	82.40 ± 1.50	28.23 ± 2.76	136.25 ± 36.28	2.00 ± 0.53	274.13 ± 47.46	81.92 ± 1.66	22.38	148.63 ± 28.41	2.00 ± 0.76	36	4.8	22.8	21	33.6	reducing the infarct area (smallest mean infarct rate) (MCAO/R rats; high doses, comparison among test drugs): more advantageous; cerebral edema in rats (MCAO/R rats; low and medium doses): did not significantly improve; Cmax ([1]; PO 6 mg/kg): 168 ng/g; Tmax ([1]; PO 6 mg/kg): 15 min; half-life ([1]; PO 6 mg/kg): 46.2 min; MRT last ([1]; PO 6 mg/kg): 73.2 min; MRT inf ([1]; PO 6 mg/kg): 79.2 min; AUC(0−t) ([1]; IV 1 mg/kg): 16.44 ng·h/g; AUC(0−∞) ([1]; IV 1 mg/kg): 19.83 ng·h/g; AUC(0−t) ([1]; PO 6 mg/kg): 289.35 ng·h/g; AUC(0−∞) ([1]; PO 6 mg/kg): 296.91 ng·h/g
